Laboratory results published in PubChem BioAssay AID1259407 (Chemical Carcinogenesis Research Information System (CCRIS), 2018).
The source made the active and inactive calls. How the calls were made is not given here.

Test system: CCRIS mutagenicity, Ames/micronucleus/aberration tests
Experiment: CCRIS mutagenicity studies
[1] = Test System: AMES SALMONELLA TYPHIMURIUM, Strain/Indicator: TA98, Metabolic Activation: NONE, Method: PREINCUBATION
[2] = Test System: AMES SALMONELLA TYPHIMURIUM, Strain/Indicator: TA98, Metabolic Activation: NONE, Method: STANDARD PLATE
[3] = Test System: AMES SALMONELLA TYPHIMURIUM, Strain/Indicator: TA98, Metabolic Activation: RAT, LIVER, S-9, AROCLOR 1254, Method: STANDARD PLATE
[4] = Test System: AMES SALMONELLA TYPHIMURIUM, Strain/Indicator: TA100, Metabolic Activation: NONE, Method: PREINCUBATION
[5] = Test System: AMES SALMONELLA TYPHIMURIUM, Strain/Indicator: TA100, Metabolic Activation: NONE, Method: STANDARD PLATE
[6] = Test System: AMES SALMONELLA TYPHIMURIUM, Strain/Indicator: TA100, Metabolic Activation: RAT, LIVER, S-9, AROCLOR 1254, Method: STANDARD PLATE
[7] = Test System: AMES SALMONELLA TYPHIMURIUM, Strain/Indicator: TA1535, Metabolic Activation: NONE, Method: STANDARD PLATE
[8] = Test System: AMES SALMONELLA TYPHIMURIUM, Strain/Indicator: TA1535, Metabolic Activation: RAT, LIVER, S-9, AROCLOR 1254, Method: STANDARD PLATE
[9] = Test System: AMES SALMONELLA TYPHIMURIUM, Strain/Indicator: TA1537, Metabolic Activation: RAT, LIVER, S-9, AROCLOR 1254, Method: STANDARD PLATE
[10] = Test System: AMES SALMONELLA TYPHIMURIUM, Strain/Indicator: TA1538, Metabolic Activation: NONE, Method: STANDARD PLATE
[11] = Test System: AMES SALMONELLA TYPHIMURIUM, Strain/Indicator: TA1538, Metabolic Activation: RAT, LIVER, S-9, AROCLOR 1254, Method: STANDARD PLATE

Q: How did the mutagenic call (Test System: AMES SALMONELLA TYPHIMURIUM, Strain/Indicator: TA97, Metabolic Activation: HAMSTER, LIVER, S-9, AROCLOR 1254 (10 OR 30%), Method: PREINCUBATION) turn out when `C1OCOCO1` was run?
A: inactive; negative

Q: What about the mutagenic call (Test System: AMES SALMONELLA TYPHIMURIUM, Strain/Indicator: TA97, Metabolic Activation: NONE, Method: PREINCUBATION) of the same molecule?
A: inactive; negative

Q: What about the mutagenic call (Test System: AMES SALMONELLA TYPHIMURIUM, Strain/Indicator: TA97, Metabolic Activation: RAT, LIVER, S-9, AROCLOR 1254 (10 OR 30%), Method: PREINCUBATION) of the same molecule?
A: inactive; negative

Q: What about the mutagenic call (Test System: AMES SALMONELLA TYPHIMURIUM, Strain/Indicator: TA98, Metabolic Activation: HAMSTER, LIVER, S-9, AROCLOR 1254 (10 OR 30%), Method: PREINCUBATION) of the same molecule?
A: inactive; negative

Q: What about the mutagenic call [1] of the same molecule?
A: inactive; negative

Q: What about the mutagenic call [2] of the same molecule?
A: inactive; negative

Q: What about the mutagenic call (Test System: AMES SALMONELLA TYPHIMURIUM, Strain/Indicator: TA98, Metabolic Activation: RAT, LIVER, S-9, AROCLOR 1254 (10 OR 30%), Method: PREINCUBATION) of the same molecule?
A: inactive; negative

Q: What about the mutagenic call [3] of the same molecule?
A: inactive; negative

Q: And the mutagenic call (Test System: AMES SALMONELLA TYPHIMURIUM, Strain/Indicator: TA100, Metabolic Activation: HAMSTER, LIVER, S-9, AROCLOR 1254 (10 OR 30%), Method: PREINCUBATION)?
A: inactive; negative

Q: What about the mutagenic call [4] of the same molecule?
A: inactive; negative

Q: What about the mutagenic call [5] of the same molecule?
A: inactive; negative

Q: And the mutagenic call (Test System: AMES SALMONELLA TYPHIMURIUM, Strain/Indicator: TA100, Metabolic Activation: RAT, LIVER, S-9, AROCLOR 1254 (10 OR 30%), Method: PREINCUBATION)?
A: inactive; negative

Q: And the mutagenic call [6]?
A: inactive; negative

Q: And the mutagenic call (Test System: AMES SALMONELLA TYPHIMURIUM, Strain/Indicator: TA1535, Metabolic Activation: HAMSTER, LIVER, S-9, AROCLOR 1254 (10 OR 30%), Method: PREINCUBATION)?
A: inactive; negative

Q: And the mutagenic call (Test System: AMES SALMONELLA TYPHIMURIUM, Strain/Indicator: TA1535, Metabolic Activation: NONE, Method: PREINCUBATION)?
A: inactive; negative

Q: What about the mutagenic call [7] of the same molecule?
A: inactive; negative

Q: And the mutagenic call (Test System: AMES SALMONELLA TYPHIMURIUM, Strain/Indicator: TA1535, Metabolic Activation: RAT, LIVER, S-9, AROCLOR 1254 (10 OR 30%), Method: PREINCUBATION)?
A: inactive; negative

Q: What about the mutagenic call [8] of the same molecule?
A: inactive; negative

Q: And the mutagenic call (Test System: AMES SALMONELLA TYPHIMURIUM, Strain/Indicator: TA1537, Metabolic Activation: NONE, Method: STANDARD PLATE)?
A: inactive; negative

Q: What about the mutagenic call [9] of the same molecule?
A: inactive; negative

Q: What about the mutagenic call [10] of the same molecule?
A: inactive; negative

Q: And the mutagenic call [11]?
A: inactive; negative

Q: Which mutagenic call (Test System: AMES SALMONELLA TYPHIMURIUM, Strain/Indicator: TA98, Metabolic Activation: HAMSTER LIVER S-9, Method: PREINCUBATION) does the source give for `Nc1ccc(N=Nc2ccc3c(c2)C(=O)/C(=N/Nc2ccc(Nc4ccc(N/N=C5/C(=O)c6cc(N=Nc7ccc(N)cc7N)ccc6C=C5S(=O)(=O)O)cc4S(=O)(=O)O)cc2)C(S(=O)(=O)O)=C3)c(N)c1` here?
A: active; positive

Q: And the mutagenic call (Test System: AMES SALMONELLA TYPHIMURIUM, Strain/Indicator: TA98, Metabolic Activation: HAMSTER, LIVER, S-9, AROCLOR 1254, Method: STANDARD PLATE)?
A: active; positive

Q: What about the mutagenic call (Test System: AMES SALMONELLA TYPHIMURIUM, Strain/Indicator: TA98, Metabolic Activation: HAMSTER, LIVER, S-9, Method: PREINCUBATION (PRIVAL METHOD)) of the same molecule?
A: active; positive

Q: What about the mutagenic call [1] of the same molecule?
A: active; positive

Q: And the mutagenic call [2]?
A: active; positive

Q: What about the mutagenic call (Test System: AMES SALMONELLA TYPHIMURIUM, Strain/Indicator: TA98, Metabolic Activation: RAT LIVER S-9, AROCLOR 1254, Method: PREINCUBATION) of the same molecule?
A: active; positive

Q: And the mutagenic call [3]?
A: active; positive

Q: And the mutagenic call (Test System: AMES SALMONELLA TYPHIMURIUM, Strain/Indicator: TA100, Metabolic Activation: HAMSTER LIVER S-9, Method: PREINCUBATION)?
A: active; positive

Q: And the mutagenic call (Test System: AMES SALMONELLA TYPHIMURIUM, Strain/Indicator: TA100, Metabolic Activation: HAMSTER, LIVER, S-9, AROCLOR 1254, Method: STANDARD PLATE)?
A: inactive; negative

Q: And the mutagenic call [4]?
A: inactive; negative

Q: And the mutagenic call [5]?
A: inactive; negative

Q: What about the mutagenic call (Test System: AMES SALMONELLA TYPHIMURIUM, Strain/Indicator: TA100, Metabolic Activation: RAT LIVER S-9, AROCLOR 1254, Method: PREINCUBATION) of the same molecule?
A: inactive; negative

Q: And the mutagenic call [6]?
A: inactive; negative

Q: And the mutagenic call (Test System: AMES SALMONELLA TYPHIMURIUM, Strain/Indicator: TA1535, Metabolic Activation: HAMSTER, LIVER, S-9, AROCLOR 1254, Method: STANDARD PLATE)?
A: active; positive

Q: And the mutagenic call [7]?
A: inactive; negative

Q: What about the mutagenic call [8] of the same molecule?
A: inactive; negative

Q: What about the mutagenic call (Test System: AMES SALMONELLA TYPHIMURIUM, Strain/Indicator: TA1537, Metabolic Activation: HAMSTER, LIVER, S-9, AROCLOR 1254, Method: STANDARD PLATE) of the same molecule?
A: active; positive

Q: What about the mutagenic call [9] of the same molecule?
A: active; positive

Q: And the mutagenic call (Test System: AMES SALMONELLA TYPHIMURIUM, Strain/Indicator: TA1538, Metabolic Activation: HAMSTER, LIVER, S-9, AROCLOR 1254, Method: STANDARD PLATE)?
A: active; positive

Q: What about the mutagenic call [10] of the same molecule?
A: active; positive

Q: And the mutagenic call [11]?
A: active; positive

Q: And the mutagenic call (Test System: MOUSE LYMPHOMA, Strain/Indicator: L5178Y (TK+/TK-), Metabolic Activation: NONE, Method: SUSPENSION/PLATE)?
A: inactive; negative

Q: What about the mutagenic call (Test System: MOUSE LYMPHOMA, Strain/Indicator: L5178Y (TK+/TK-), Metabolic Activation: RAT, LIVER, S-9, AROCLOR 1254, Method: SUSPENSION/PLATE) of the same molecule?
A: inactive; negative
